From patent US7258999B2, “PTH responsive gene” (Wyeth, priority 2002, dated 2007)

Legend:
[1] = tested on: PAIGB expression in ROS 17/2.8 cells; test: Real time PCR of PAIGB expression in ROS 17/2.8 cells; format: cell-based, rat; settings: for effect on PAIGB expression after 4 hours of treatment: estrogen 10 nM, tamoxifen 0.1 μM, BMP2 300 ng/ml, calcitonin 5 ng/ml
From the text: Applicants performed multiplex real time PCR (TaqMan) analysis on previously DNAsed samples using gene specific probe and primers and 18S ribosomal RNA probe and primer sets purchased from Applied Biosystem. (Foster City, Calif.) The samples were DNAsed according to the protocol provided by Ambion (DNA-free kit). TaqMan probe and primers for PAIGB was identify using Primer Express computer program. The sequence for rat PAIGB TaqMan probe was 6FAM-5′[…] (SEQ ID NO: 16) forward and reverse primers were 5′[…] 3′ (SEQ ID NO:17) and 5′ […] 3′ (SEQ ID NO:18) respectively. The final concentrations for probes were 500 nM and 40 nM for PAIGB and 18S ribosomal RNA or GAPDH respectively. The concentrations of the primers were 500 nM for PAIGB forward and reversed primers while 18S primers were 10 and 20 nM for forward and reversed primer respectively or 40 nM for GAPDH primers. Standards for rat samples were made from rat tibia or brain RNA in the range of 250 ng to 0.1 ng, while standards for mouse specific TaqMan were made from mouse brain RNA and human standards from human brain RNA (Clonetech, Palo Alto, Calif.) spanning the same range of concentration. Primers and probes for mouse PAIGB were: forward 5′ […] 3′ (SEQ ID NO:19), reverse, 5′ […] (SEQ ID NO:21). Primers and probes for human PAIGB were: forward 5′ […] 3′ (SEQ ID NO:22), reverse 5′ […] 3′(SEQ ID NO: 24). The Taq-man analysis was done using ABI 7700 Sequence Detector under following conditions: 30 min at 48° C., 10 min at 95° C. and 40 cycles of 15 sec at 95° C. and 60 sec at 60° C. Analysis of real-time PCR analysis was performed using (Sequence Detector, Macintosh) program.
Five cell types were primarily used in our experiments. Rat osteoblast cell line (ROS 17/2.8) that expresses moderate levels of PTH receptor 1 (Rodan et al, Rev. Eukaryotic Gene Expression 1:85-98, 1991) were used to perform in vitro experiments. ROS cells were maintained under standard cell culture conditions: 10% heat inactivated FBS in Dulbecco's Modified Eagle Medium with Nutrient Mixture F-12 (DMEM/F12) media, 1% Penicillin/Streptomycin and 1% Glutamax. Mouse cell line C3H10T½ (ATCC# CCL226) as a representative of mouse osteoprogenitor cell line were maintained in Eagles Minimal Essential Media (EMEM) with the addition of 10% heat inactivated FBS and 1% Penicillin/Streptomycin and 1% Glutamax. UMR106 rat osteoblastic cells (ATCC# CRL1661) were cultured in Dulbecco's Modified Eagle Medium (DMEM) supplemented with 10% heat inactivated FBS, 1% Penicillin/Streptomycin and 1% Glutamax. The U2OS human osteoblastic cells (ATCC# HTB96) were cultured in McCoy's 5A Medium Modified supplemented with 10% FBS, 1% Penicillin/Streptomycin and 1% Glutamax. The human HOB-03-CE6 cell line (Bodine, V. N. P., et. al., J. Cell. Biochem., 65: 368-387,1997) was maintained in phenol red free DMEM/F12 media supplemented with 10% heat inactivated FBS and 1% Penicillin/Streptomycin and 1% Glutamax.
ROS 17/2.8 rat osteoblast cell line that express PTH receptor (˜80000 receptors/cell) were treated with increased doses of PTH: 1 nM, 10 nM, 100 nM and 1000 nM. Real time PCR using rat specific Taq-man probes and primers were used to examine the changes in PAIGB expression with PTH treatment.
Time course of PTH induction of PAIGB expression was examined. ROS 17/2.8_cells were treated with 10 nM PTH and RNA was harvested at 1, 2, 4, 6, 8 and 24 hours post treatment.

[2] = tested on: PAIGB expression in UMR106 cells; test: Real time PCR of PAIGB expression in UMR106 cells; format: cell-based, rat
From the text: Applicants performed multiplex real time PCR (TaqMan) analysis on previously DNAsed samples using gene specific probe and primers and 18S ribosomal RNA probe and primer sets purchased from Applied Biosystem. (Foster City, Calif.) The samples were DNAsed according to the protocol provided by Ambion (DNA-free kit). TaqMan probe and primers for PAIGB was identify using Primer Express computer program. The sequence for rat PAIGB TaqMan probe was 6FAM-5′[…] (SEQ ID NO: 16) forward and reverse primers were 5′[…] 3′ (SEQ ID NO:17) and 5′ […] 3′ (SEQ ID NO:18) respectively. The final concentrations for probes were 500 nM and 40 nM for PAIGB and 18S ribosomal RNA or GAPDH respectively. The concentrations of the primers were 500 nM for PAIGB forward and reversed primers while 18S primers were 10 and 20 nM for forward and reversed primer respectively or 40 nM for GAPDH primers. Standards for rat samples were made from rat tibia or brain RNA in the range of 250 ng to 0.1 ng, while standards for mouse specific TaqMan were made from mouse brain RNA and human standards from human brain RNA (Clonetech, Palo Alto, Calif.) spanning the same range of concentration. Primers and probes for mouse PAIGB were: forward 5′ […] 3′ (SEQ ID NO:19), reverse, 5′ […] 3′ (SEQ ID NO:20) anti-sense and probe 5′ 6FAM-[…] (SEQ ID NO:21). Primers and probes for human PAIGB were: forward 5′ […] 3′ (SEQ ID NO:22), reverse 5′ […] […]

calcitonin
effect on PAIGB expression after 4 hours of treatment ([1]; 4 hours): did not have any effect

Nc1ncnc2c1ncn2C1CCCO1 (stereo not shown) [SQ 22536]
blocking of the effect of PTH on PAIGB expression ([1]; 200 μM, 2 hours pretreatment, then 10 nM PTH 4 hours): completely blocks

C=C1CC[C@H](O)C/C1=C/C=C1\CCC[C@]2(C)[C@@H]([C@H](C)CCCC(C)C)CC[C@@H]12 [vitamin D3]
PAIGB expression in UMR106 cells ([2]; UMR106 cells): induced

PKC inhibitor: Protein Kinase C inhibitor (PKC)19-27, an inhibitor of PKC signaling pathway (RFARKGALR; pseudosubstrate peptide; UniProt P17252 19-27, looked up, fragment)
blocking of PTH induced PAIGB expression ([1]; 10 μM, 2 hours pretreatment, then 10 nM PTH 4 hours): little to no effect

CC(C)NCC(O)c1ccc(O)c(O)c1 (stereo not shown) [isoproterenol]
increase in PAIGB expression ([1]; data not shown, concentration and cell line not restated): 2 fold

CC/C(=C(\c1ccccc1)c1ccc(OCCN(C)C)cc1)c1ccccc1 [tamoxifen]
effect on PAIGB expression after 4 hours of treatment ([1]; 4 hours): did not have any effect

COc1ccc(C2CNC(=O)C2)cc1OC1CCCC1 (stereo not shown) [Rolipram]
PAIGB expression ([1]; ROS 17/2.8 cells, data not shown): Increases | PAIGB expression ([2]; UMR 106 cells, data not shown): Increases

CCCCC[C@H](O)/C=C/[C@H]1[C@H](O)CC(=O)[C@@H]1C/C=C\CCCC(=O)O [PGE2, prostaglandin E2]
induction of PAIGB mRNA expression ([1]; two concentrations 10 nM and 10 μM, 4 hours): only at the lower dose

C[C@@H]1C[C@H]2[C@@H]3CCC4=CC(=O)C=C[C@]4(C)[C@@]3(F)[C@@H](O)C[C@]2(C)[C@@]1(O)C(=O)CO [dexamethasone]
increase in PAIGB expression ([1]; 100 nM, 4 hours): 2-3 fold
